Article PMC3818031 (Acta Crystallographica Section F: Structural Biology and …, 2013)

Target: T1, Ara1 (Saccharomyces cerevisiae, UniProt P38115)
T1 construct: Ni-NTA and Superdex 200; tag cleavage not mentioned; homodimer
Assay: X-ray crystallography of co-crystal, […] A
Details: co-crystallised with 5 mM NADPH, pH 6.5, 0.05 M CaCl2, 289 K; cofactor-binding site

## NC(=O)C1=CN([C@@H]2O[C@H](COP(=O)(O)OP(=O)(O)OC[C@H]3O[C@@H](n4cnc5c(N)ncnc54)[C@H](OP(=O)(O)O)[C@@H]3O)[C@@H](O)[C@H]2O)C=CC1 [NADPH]
  X-ray crystallography of co-crystal, 2.00 A: The structure of the Ara1–NADPH complex showed that a molecule of NADPH binds
